Data published in patent US20060062793A1, “Modified antibodies to prostate-specific membrane antigen and uses thereof” (priority 2004, published 2006).

Columns and labels:
[1] = system: PSMA-positive human LNCaP tumors; test: Biodistribution of 111In labeled MAbs in nude mice bearing LNCaP tumors; type: in vivo, mouse
Protocol: (§1) Prior to use, the cells were trypsinized, counted and suspended in Matrigel (Collaborative Biomedical Products, Bedford, Mass.). Nu/Nu Balb C mice 8-10 weeks of age were inoculated, in the right and left flanks, with a suspension of 5×10^6 LNCaP cells in Matrigel (BD Biosciences, Bedford Mass.). After a period of 14-18 days, tumors (100-300 mg) had developed. The PSMA-negative DU145 and PC3 cells were implanted in nude mice in an identical manner.
(§2) The PSMA-positive and PSMA-negative tumor bearing mice were injected, via the tail vein, with 80 KBq of the iodinated MAb (400 MBq/mg) in 200 μL of PBS (pH 7.4, 0.2% BSA). Groups of animals (3-8/group) were sacrificed after 2, 4 or 6 days. The major organs and tumors were recovered. The tissue samples were weighed and counted, with appropriate standards in an automatic NaI(Tl) counter. These measured relative activity data (cpm) were background corrected and expressed as a percentage of the injected dose per gram (% ID/g). […] J415, J591 and 7E11 were labeled with ^111In (100 MBq/mg). 80 KBq of the ^111In labeled MAbs were injected in groups of animals. The % ID/g in various organs and tumor tissues was determined at 2-6 days post injection in a similar way as described for ^131I labeled MAbs.

LNCaP tumor sections = type: in vivo, mouse
LNCaP tumor = test: Gamma camera imaging of nude mice with 111In-DOTA-J591; type: in vivo, mouse; conditions: days 1-6
Protocol: For the imaging studies, animals were injected with 2 MBq of ^111In-DOTA-J591. On days 1, 2, 3, 4 and 6 post-injection, the mice were sedated with ketamine/xylazine 100 mg/kg/10 mg/kg IP. The mice were imaged with a gamma camera (Transcam, ADAC Laboratories, Milpitas, Calif.) equipped with a pinhole collimator. The images were acquired in a 256×256 matrix for 1000 seconds using a 20% window of 245 KeV photopeak of ^111In.

[2] = system: recurrent, progressing prostate cancer; test: Phase I trial of four weekly doses of 111In-DOTA-deJ591; parameters: species or system human; conditions: in vivo
Protocol: Patients with recurrent, progressing prostate cancer received four weekly doses of ^111In-DOTA-deJ591. Doses were escalated in cohorts of three patients and ranged from 62.5-500 mg/m2 (total). […] After the first dose, patients were imaged on the day of injection (day 0) and days 1, 2, 4 and 7.
Serum PK, immune reaction and toxicity were evaluated after each dose for a minimum of 12 weeks.

[3] = system: hormone refractory prostate cancer; test: 111In-DOTA-deJ591 targeting of hormone refractory prostate cancer (single 20 mg dose, imaging); type: in vivo, human
prostate tissue = test: Immunohistochemistry of DOTA conjugated deJ591
Protocol: Immunohistochemistry was performed on the DOTA conjugated, partially purified, bulk intermediate deJ591.

[4] = system: PSMA-negative DU145 tumors; type: in vivo, mouse; conditions: 4 days post injection, DU145 tumors (n=6)
Protocol: as §1, §2
(§3) The uptake in lungs, kidney, muscle was similar with all three antibodies.

PSMA-negative PC3 tumors = type: in vivo, mouse; conditions: 4 days post injection, PC3 tumors (n=10)
Protocol: as §1, §2, §3

[5] = system: androgen-independent PSMA-positive 22RV1 xenograft; test: deJ591-DM1 efficacy in castrate or intact scid mice bearing 22RV1 xenograft; type: in vivo, mouse
Protocol: Prostate tumors can be broadly classified as either androgen-dependent or androgen-independent. […] The 22RV1 cell line was originally developed as androgen-independent and can be grown as a xenograft in C.B-17 scid mice that have been left either intact or castrated. […] This was approximately twice the time required for the tumors of intact mice to reach 1000 mm^3 (9.3 days). C.B-17 scid mice bearing CWR22 xenografts approximately 200 mm^3 in size received IV injections (200 μL constant volume) of the test articles according to the dosage and schedule shown in the Table 24.

[6] = system: hormone-independent prostate cancer; test: Phase I trial of trace-labeled 131I-J591 (murine) in hormone-independent prostate cancer patients; type: in vivo, human
Protocol: Hormone-independent patients with rising PSA levels and acceptable hematologic, hepatic and renal function received a single dose of murine mAb J591. Doses are escalated (from 0.5-300 mg) in groups of three to six patients. Each dose included ≦1.0 mg J591 labeled with 10 mCi ^131I iodine as a tracer plus “cold” mAb. The dose levels used ranged from 0.5 to 300.0 mg as follows: 0.5 mg, 1.0 mg, 2.0 mg, 5.0 mg, 10 mg, 25 mg, 50 mg, 100 mg, 125 mg, 150 mg, 200 mg, 250 mg, and 300 mg. Blood and urine were collected to monitor pharmacokinetics, toxicity and human anti-mouse antibody (HAMA) response. Patients were imaged on the day of injection (day 0), as well as days 2, 4 and 6 to track mAb targeting.

[7] = system: metastatic androgen-independent prostate cancer; test: Phase 1 ascending dose trial of DM1 conjugated deJ591 in metastatic androgen-independent prostate cancer; type: in vivo, human
Protocol: Based upon emerging clinical safety and PK, repeat dosing at four week intervals was subsequently permitted.
DLT is defined as the occurrence of one or more of the following: • Hematologic: Grade 4 thrombocytopenia (platelet count <10,000/mm3) • Requirement for platelet transfusion and/or other methods to increase platelet count • Febrile neutropenia (ANC<1000/mm^3 concurrent with a temperature >38.5° C.). (Per the Infection/Febrile Neutropenia subsection of the NCI CTC version 2.0, febrile neutropenia is, by definition, a >Grade 3 toxicity) • Grade 4 neutropenia without fever of >7 days duration • Grade 3 neutropenia requiring granulocyte colony-stimulating factor (G-CSF) administration • Grade 4 anemia (hemoglobin <6.5 g/dL) • Grade 3 anemia (hemoglobin 6.5-<8.0 g/dL) in a subject receiving EpogenÒNon-hematologic • Any Grade 3 non-hematologic toxicity considered by the investigator to be possibly related to study drugMTD is defined as the highest dose level with an observed incidence of DLT in no more than 1 out of 6 subjects. […]
The starting dose is 18 mg/m2. […] Dose escalation will continue until DLT and MTD are determined. […] Subsequent dose escalation and enrollment will be determined by the number and grade of toxicities observed in these two additional subjects. […] The previous dose level will be evaluated as potential MTD. […]

[8] = system: PSMA-positive CWR22 xenografts; test: deJ591-DM1 efficacy in PSMA-positive CWR22 xenografts in scid mice; type: in vivo, mouse
Protocol: (§4) Experiment: Male SCID mice were implanted by serial passage of CWR22 prostate tumor xenograft. […] All treatments were given intravenously. Tumor growth and animal health were continually monitored throughout the study with tumor growth measured every 3 days.
Experiment: Male C.B-17 SCID mice bearing CWR22 xenografts approximately 200 mm^3 in size received IV injections (200 μL constant volume) of the test articles according to the dose and schedule as shown in Table 22.
Male C.B-17 scid mice bearing CWR22 xenografts approximately 200 mm^3 in size received IV injections (200 μL constant volume) of the test articles according to the dose and schedule shown in the Table 23.
The objective of this study was to determine how much the dosing interval could be increased at this dosage before a loss of efficacy in terms of TGD would be observed. […] The growth delays for the other schedules were: q7d, 53.0 days; q21d, 48.0 days; and q28d, 26.9 days. Similar to other studies using the CWR22 xenograft model, no curative responses were observed, with all tumors eventually resuming growth (FIG. 18).
as §4, with “intravenously and on a schedule of every three days for 5 doses.” for “intravenously.”
as §4, with “intravenously and on a schedule of every seven days for 5 doses.” for “intravenously.”

[9] = 14.5 mg/kg, 7 and 14 day dosing interval

Compound: J591: murine monoclonal antibody to the extracellular domain of human PSMA; hybridoma ATCC HB-12126
- kinetics of blood clearance [1]: faster compared to 7E11
- intra-tumoral distribution pattern (LNCaP tumor sections; 131I-labeled, 4 to 6 days after intravenous injection): distinct preferential accumulation in areas of viable tumor

Compound: ^111In-DOTA-deJ591
- tumor accumulation on serial gamma camera images (LNCaP tumor): intense tumor accumulation
- mAb targeting to non-prostate cancer sites [2]: No mAb targeting to non-prostate cancer sites was noted
- Plasma clearance (T1/2) ([3]; 20 mg deJ591): 34 ± 5 h
- Liver uptake ([3]; day 6): 27±1.7%
- accumulation in the prostate gland ([3]; patients with intact but irradiated prostate): generally minimal
- absorbed dose by the liver ([3]; with 111In): 2.8±0.25 rads/mCi

Compound: DOTA-deJ591
- tissue specificity by immunohistochemistry (prostate tissue): specific to prostate tissue
- reactivity by immunohistochemistry (prostate tissue; compared with naked deJ591): equivalent to the naked deJ591 antibody

Compound: ^131I-deJ591
- tumor uptake [4]: 0.55±0.03 % ID/g
- tumor uptake (PSMA-negative PC3 tumors): 0.66±0.07 % ID/g

Compound: MLN2704
- Tumor Growth Delay ([5]; Castrate mice, 22RV1 xenograft, 240 μg/kg DM1-equivalents, q7dX5): 21.4 days

Compound: ^131I-J591: murine mAb J591 labeled with 131I iodine
- adverse events related to the murine antibody ([6]; 33 patients): Only one patient had an adverse event related to the murine antibody
- positive monoclonal antibody scans among patients with positive soft tissue (CT scans) ([6]; eight out of nine): about 90%
- human anti-murine antibody (HAMA) response ([6]; human, in vivo): Eight out of sixteen evaluable patients
- patients in whom known sites of prostate cancer metastases can be imaged ([6]; patients with disease sites imaged by conventional studies): approximately 80%
- positive monoclonal antibody scans among patients with positive bone scans ([6]; twenty-four out of twenty-seven): about 90%
- binding pattern, ex vivo autoradiography (LNCaP tumor sections; incubated directly on the tissue section): homogeneous binding pattern

Compound: deJ591-DM1: deJ591 conjugated via SPP disulfide linker to the maytansinoid cytotoxin DM1
- dose-limiting toxicity ([7]; highest dose level 343 mg/m^2): Only one DLT, an uncomplicated febrile neutropenia
- tumor response ([7]; one patient, 264 mg/m^2): PR by RECIST criteria
- TGD compared to DM1 at equivalent dose and schedule ([5]; androgen-intact mice, q3d schedule): better TGD
- resumption of normal growth kinetics after the last dose [8, 9]: approximately 30 days
- tumor growth [8, 9]: apparent block in tumor growth
- suppression of tumor growth following the last administered dose ([8]; 14.5 mg/kg, every three days for 5 doses, IV): approximately 20 days
- Efficacious dosage in SCID mouse xenografts, DM1-Equivalents received ([8]; SCID mouse xenografts, DM1-equivalents): ˜0.72 mg/m^2
- tumor growth inhibitory effect ([8]; doses and schedules of Comparison I, non-curative): substantial tumor growth inhibitory effect
- effect on large tumors (500 to 2000 mm^3) ([8]; second course, 12.93 mg/kg): potent regressions in large tumors

Compound: COc1cc2cc(c1Cl)N(C)C(=O)C[C@H](OC(=O)[C@H](C)N(C)C(C)=O)[C@]1(C)O[C@H]1[C@H](C)[C@@H]1C[C@@](O)(NC(=O)O1)[C@H](OC)/C=C/C=C(\C)C2 [Maytansine, reference compound]
- Tumor Growth Delay ([8]; 240 μg/kg (240 μg/kg DM1-equivalents), qdX5, IV, Comparison I): 17.7 days
